One may read the EC50 as the concentration that produces a half-maximal response. Low values mean an effect from little substance, high ones a need for much substance. By solubility is commonly meant the concentration that dissolves in the medium under given conditions. High values mean much dissolved substance, low ones little dissolved substance.

Converted amounts (≈) assume the structure as drawn.

Data set [1] has as its target T1, human β3 adrenergic receptor (Homo sapiens, UniProt P13945).
T1 construct: used as a probe to obtain the full length human β3 gene from a human genomic library (Clonetech); expressed in transfected cells; host or cells: CHO (Chinese hamster ovary) cells, pcDNA3, geneticin-selected
As to the kind of experiment: Test example 1-B: human β3 adrenergic receptor agonist activity (cAMP-Screen, 96-well). Format: cell-based. Particulars: for Emax: 0.5 h, read-out: β3 receptor I.A.; for EC50: Table 4, Test example 1-B, CHO cells with human β3 gene, cAMP. The protocol: Human β3 adrenergic receptor agonist activity is determined using CHO (Chinese hamster ovary) cells transfected with pcDNA3 (Invitrogen) to which human β3 gene has been inserted. […] This human β3 cDNA fragment is used as a probe to obtain the full length human β3 gene from a human genomic library (Clonetech). The above cells are cultured in a Ham's F-12 medium containing 10% fetal bovine serum and 400 μg/mL geneticin (Invitrogen). After seeding these cells into a 96-well plate (2×10^4 cells/well) and culturing them for about 20 hours, they are allowed to stand in a serum-free Ham's F-12 medium (80 μL) for 15 minutes. The test compound is first dissolved in DMSO, serially diluted with Ham's F-12 comprising 100 mmol/L HEPES and 1 mmol/L isobutylmethylxanthine, and then 20 μL of the solution is added to the cells. After the cells are cultured for 30 minutes, the medium is removed, followed by addition of assay/lysis buffer (0.1 ml) included in cAMP-Screen Kit (manufactured by Applied Biosystems). The cells are incubated for 30 minutes at 37° C. The resulting cell lysate is determined to cAMP quantitation by using cAMP-Screen kit described above.

The target in data set [2] is T2, human β1 adrenergic receptor (Homo sapiens, UniProt P08588).
T2 construct: expressed in transfected cells; host or cells: CHO (Chinese hamster ovary) cells, pcDNA3
T2 sequence (P08588 whole entry): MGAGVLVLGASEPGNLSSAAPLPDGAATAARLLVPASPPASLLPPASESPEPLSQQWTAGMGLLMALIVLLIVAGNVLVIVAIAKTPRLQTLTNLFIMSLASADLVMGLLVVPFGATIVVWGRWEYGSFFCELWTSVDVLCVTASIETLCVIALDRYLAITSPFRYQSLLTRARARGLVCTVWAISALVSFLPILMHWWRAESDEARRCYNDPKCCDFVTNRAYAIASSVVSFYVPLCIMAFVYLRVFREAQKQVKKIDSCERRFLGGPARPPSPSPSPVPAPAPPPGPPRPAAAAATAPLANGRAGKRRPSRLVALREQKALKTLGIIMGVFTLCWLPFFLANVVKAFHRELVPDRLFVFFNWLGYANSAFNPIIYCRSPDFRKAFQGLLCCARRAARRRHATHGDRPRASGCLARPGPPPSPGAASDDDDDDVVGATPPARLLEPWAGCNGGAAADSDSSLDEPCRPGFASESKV
As to the kind of experiment: Test example 2-B: human β1 adrenergic receptor agonist activity. Format: cell-based. Particulars: 0.5 h; read-out: β1 receptor I.A.

The target in data set [3] is T3, human β2 adrenergic receptor (Homo sapiens, UniProt P07550).
T3 construct: expressed in transfected cells; host or cells: CHO (Chinese hamster ovary) cells, pcDNA3
T3 sequence (P07550 whole entry): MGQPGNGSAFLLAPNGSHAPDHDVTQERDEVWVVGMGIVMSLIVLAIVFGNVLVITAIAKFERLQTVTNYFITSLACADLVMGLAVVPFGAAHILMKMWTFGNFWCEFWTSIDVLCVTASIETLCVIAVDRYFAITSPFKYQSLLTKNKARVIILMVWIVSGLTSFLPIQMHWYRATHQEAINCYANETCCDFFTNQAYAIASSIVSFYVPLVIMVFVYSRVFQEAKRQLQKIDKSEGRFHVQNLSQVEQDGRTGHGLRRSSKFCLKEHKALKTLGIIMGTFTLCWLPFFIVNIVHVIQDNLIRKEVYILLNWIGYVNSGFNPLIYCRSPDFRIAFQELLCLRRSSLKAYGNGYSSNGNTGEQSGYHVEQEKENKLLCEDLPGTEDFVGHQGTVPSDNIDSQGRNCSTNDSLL
Description: Test example 3-B: human β2 adrenergic receptor agonist activity. Format: cell-based. Particulars: read-out: β2 receptor I.A.

Data set [4] is described as follows: Test example 10: saturation solubility in pure water. Format: physicochemical. Particulars: thermodynamic from solid, room temperature, shaken 1 hour. Here is the method: Test compound is prepared to saturation state in pure water. The resulting solution is shaken at room temperature for 1 hour. To a filter tube, the entire solution obtained after the shaking is transferred and is subjected to centrifugal filtration at room temperature. The filtrate is analyzed by HPLC, and by using a calibration curve, saturation solubility of the test compound is obtained from the peak area value.
Standard solution is prepared by precisely weighing each test compound and fully dissolving it in pure water. Calibration curve is established by having the concentration of the standard solution as a horizontal axis and the HPLC area value at the corresponding concentration as a vertical axis.
(§1) As a separation column, YMC-Pack C18 (4.6 mm×150 mm, manufactured by YMC) is used. Detection is made at UV-254 nm and the temperature inside the column is 40° C. Condition for elution is as follows; with flow rate of 1 ml/minute, solution A as a solvent=water [comprising 0.1% (v/v) acetic acid] and solution B=acetonitrile are used, and from minute 0 to minute 20, 5 to 98% (v/v) linear gradient of solution B is applied, followed by elution with 98% of solution B until minute 25 and elution with 5% of solution B from minute 25.01 to minute 35.

A short description of data set [5]: Test example 11: solubility test in hydrochloric acid buffer solution having pH 1.2. The data set is classed as physicochemical. Particulars: 37 °C, pH 1.2, simulated gastric fluid, thermodynamic from solid, pH 1.2, 37° C., prepared at 1000 μg/mL. Here is the method:
500 μg of the test compound is precisely weighed, and then added with hydrochloric acid buffer solution having pH 1.2 until the concentration of 1000 μg/mL is obtained. The […] is shaken at 37° C. for 1 hour. To a filter tube, the entire solution obtained after the shaking is transferred and is subjected to centrifugal filtration at room temperature. The filtrate is analyzed by HPLC, and by using a calibration curve, saturation solubility of the test compound is obtained from the peak area value.
Standard solution is prepared by precisely weighing 500 μg of the test compound and dissolving it DMSO to obtain the concentration of 1 mg/mL.
as §1

Data set [6] can be described thus: Test example 14: stability in phosphate buffer solution having pH 6.8. Format: physicochemical. Particulars: for HPLC area percentage at 24 hours after the filtration / HPLC area percentage at 48 hours after the filtration / HPLC area percentage right after the filtration: phosphate buffer solution pH 6.8; for stability in phosphate buffer solution pH 6.8 (finding): up to 48 hours. Here is the method:
Test compound is prepared to saturation state in pure water. The resulting solution is shaken at room temperature for 1 hour. To a filter tube, the entire solution obtained after the shaking is transferred and is subjected to centrifugal filtration at room temperature. The filtrate is analyzed by HPLC right after the filtration, 24 hours, and 48 hours after the filtration. Then, by using a calibration curve, stability of the test compound is obtained from the peak area value.
Except that pure water is replaced with phosphate buffer solution having pH 6.8, the test is carried out in the same method as Test example 13 to obtain the stability of the test compound.

T1 sequence (P13945 whole entry): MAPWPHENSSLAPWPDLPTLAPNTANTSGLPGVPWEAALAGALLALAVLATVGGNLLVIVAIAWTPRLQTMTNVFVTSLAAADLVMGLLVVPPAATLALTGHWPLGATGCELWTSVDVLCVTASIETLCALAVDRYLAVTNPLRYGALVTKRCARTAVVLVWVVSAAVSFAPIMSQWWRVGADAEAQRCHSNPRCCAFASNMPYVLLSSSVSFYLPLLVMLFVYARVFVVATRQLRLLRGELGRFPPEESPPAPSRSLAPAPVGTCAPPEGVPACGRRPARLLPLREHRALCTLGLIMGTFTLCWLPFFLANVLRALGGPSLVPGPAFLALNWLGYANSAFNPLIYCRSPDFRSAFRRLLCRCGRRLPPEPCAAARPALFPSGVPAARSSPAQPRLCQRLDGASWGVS

As to `CS(=O)(=O)Nc1cccc([C@@H](O)CNCCOc2ccc3c(C4CC4)n[nH]c3c2)c1` [Example 1, (R)—N-(3-(1-Hydroxy-2-(2-(3-cyclopropylindazol-6-yloxy)ethylamino)ethyl)phenyl)methanesulfonamide], in data set [1], the Emax came to 77% and the concentration for a half-maximal effect (EC50) turned out to be 0.015 µM. For the same compound, the Emax in data set [2] was 10%. Also, the Emax in data set [3] turned out to be 6.3%. The solubility at 1 h in data set [4] came out at 55 mg/mL (≈ 128 mM). In addition, the concentration in solution in data set [5] (solubility at 1 h) came to 0.982 mg/mL (≈ 2.28 mM). In data set [6], the “HPLC area percentage at 24 hours after the filtration” value stood at 95.5%, the “HPLC area percentage at 48 hours after the filtration” value is given as 95.5%, the “HPLC area percentage right after the filtration” value is given as 95.7% and the “stability in phosphate buffer solution pH 6.8 (finding)” value was “stable”.
`CS(=O)(=O)Nc1cccc([C@@H](O)CNCCOc2ccc3c(C4CCC4)n[nH]c3c2)c1` [Example 2, (R)—N-(3-(1-Hydroxy-2-(2-(3-cyclobutylindazol-6-yloxy)ethylamino)ethyl)phenyl)methanesulfonamide]: in data set [1], the Emax was 68% and a half-maximal effect (EC50) was put at 0.056 µM. In data set [2], the Emax was 9.9%. The Emax in data set [3] was 3.8%. Also, in data set [4], the concentration in solution (solubility at 1 h) came to 53 mg/mL (≈ 119 mM). In data set [5], this compound returned a solubility at 1 h of over 1 mg/mL. Also, in data set [6], the “HPLC area percentage at 24 hours after the filtration” value amounted to 93.3%, the “HPLC area percentage at 48 hours after the filtration” value turned out to be 94.5%, the “HPLC area percentage right after the filtration” value is on record as 95.1% and the “stability in phosphate buffer solution pH 6.8 (finding)” value is recorded as “stable”.

The values above are taken from US8304443B2, “Indazole derivatives” (Asahi Kasei Pharma Corporation, priority 2008, dated 2012).
